Where two headings read alike, the source gives them in different places.
Experiments:
[1] = Bench-scale ozone / AOP treatment of tertiary filtered effluent: Gemifibrozil; details: Ozone Only Mode, ozone dose of less than or equal to 5 mg/l, FIG. 28
[2] = Destruction of trace organic compounds in waste water: triclosan; design: dose or concentration left out as unconfirmed; details: FIG. 20
Description: (§1) While ozone and ozone/peroxide methods are know to reduce the levels of various organic compounds commonly found in waste water, the efficacy of the present apparatus, systems, and methods for removing nonylphenol (NP), bisphenol-A (BPA), and triclosan (TCS) from waste water was also tested.

MS2 coliphage = format: cell-based; details: for effect of peroxide addition on virus / MS2 coliphage disinfection: at the ozone and peroxide doses tested, media filtered or microfiltered water
[3] = Bench-scale ozone / AOP treatment of tertiary filtered effluent: Estradiol Equivalents (B-screen bioassay); details: Ozone Only Mode, ozone dose of less than or equal to 5 mg/l, FIG. 27
[4] = Bench-scale ozone / AOP treatment of tertiary filtered effluent: Fluoxetine; details: Ozone Only Mode, ozone dose of 5 mg/l, FIG. 32
[5] = Comparison of treatment methods for removing geosmin from water (Table 4, FIG. 6)
[6] = Comparison of treatment methods for removing MIB from water (Table 4, FIG. 6)
[7] = Bench-scale ozone / AOP treatment of tertiary filtered effluent: Trimethoprim; details: Ozone Only Mode, ozone dose of 5 mg/l, FIG. 34
poliovirus = format: cell-based
[8] = Bench-scale ozone / AOP treatment of tertiary filtered effluent: Triclosan; details: Ozone Only Mode, ozone dose of 5 mg/l, FIG. 30
total coliform = format: cell-based, coliforms
[9] = Bench-scale ozone / AOP treatment of tertiary filtered effluent: Caffeine; details: Ozone Only Mode, ozone dose of 5 mg/l, FIG. 31
[10] = Bench-scale ozone / AOP treatment of tertiary filtered effluent: Ibuprofen; details: Ozone Only Mode
[11] = Destruction of trace organic compounds in waste water: nonylphenol; design: dose or concentration left out as unconfirmed; details: ozone dose of about, FIG. 20
Description: as §1

E. Coli = assay: Bench-scale ozone / AOP disinfection of tertiary filtered effluent: E. Coli; format: cell-based; details: Ozone Only Mode, ozone dose of less than or equal to 5 mg/l
[12] = Bench-scale ozone / AOP treatment of tertiary filtered effluent: Sulfamethoxazole; details: Ozone Only Mode, ozone dose of 5 mg/l, FIG. 33
[13] = Destruction of trace organic compounds in waste water: bisphenol-A; design: dose or concentration left out as unconfirmed; details: FIG. 20
Description: as §1

SMILES: O=[O+][O-] [Ozone]
- maximum removal of Gemifibrozil [1]: > 99%
- reduction of the levels of TCS [2]: substantially reduce
- Log Reduction of MS2 as a function of ozone dose (equation 2) (MS2 coliphage): 0.4045×Ozone Dose+0.1823
- contact time sufficient to achieve a 6.5-log disinfection of MS2 coliphage (MS2 coliphage): about 10 seconds
- disinfection of MS2 coliphage achieved (MS2 coliphage): 6.5 log
- ozone dose required to achieve a 6.5-log disinfection of MS2 coliphage (MS2 coliphage): greater than 5 ppm
- ozone required to achieve a 6.5-log disinfection of MS2 coliphage, relative to media-filtered water (MS2 coliphage): slightly lower
- maximum removal of Estradiol Equivalents [3]: > 97%
- maximum removal of Fluoxetine [4]: > 97%
- reduction in geosmin [5]: ~40%
- Removal (%) Geosmin ([5]; feed rate 2.5 mg/L): 94%
- Removal (%) MIB ([6]; feed rate 2.5 mg/L): 77%
- reduction in MIB ([6]; ozone 3 mg/L, FIG. 6): ~40%
- maximum removal of Trimethoprim [7]: > 99%
- Log Reduction of Poliovirus as a function of ozone dose (equation 1) (poliovirus): 0.3427×Ozone Dose−0.3621
- disinfection of poliovirus corresponding to the 6.5-log disinfection of MS2 coliphage (poliovirus): 5 log
- maximum removal of Triclosan [8]: > 76%
- levels of coliforms after treatment (total coliform): non-detectable
- ozone dose at which non-detectable levels of total coliform were achieved (total coliform): 4.5 mg/L
- total coliform after treatment (total coliform): less than 2.2 MPN/100 mL
- maximum removal of Caffeine [9]: > 96%
- removal of Ibuprofen ([10]; ozone dose of 5 mg/l, FIG. 29): ~77%
- maximum removal of Ibuprofen ([10]; ozone dose of less than or equal to 10 mg/l): > 98%
- reduction of the levels of NP [11]: substantially reduce
- log reduction of E. Coli (E. Coli): greater than 4 log
- E. Coli after disinfection (below the detection limit) (E. Coli; untreated 12,000 organism/100 ml, FIG. 37): < 1 organism/100 ml
- maximum removal of Sulfamethoxazole [12]: > 99.9%
- reduction of the levels of BPA [13]: substantially reduce

SMILES: OO [Hydrogen peroxide]
- effect of peroxide addition on virus / MS2 coliphage disinfection (MS2 coliphage; listed as Peroxide): did not impact disinfection efficacy
- effect of peroxide addition on virus / MS2 coliphage disinfection (MS2 coliphage; listed as hydrogen peroxide): did not interfere
- effect of peroxide addition on virus / MS2 coliphage disinfection (MS2 coliphage; listed as peroxide): did not significantly affect disinfection
- Removal (%) Geosmin ([5]; feed rate 1 mg/L): 50%
- Removal (%) MIB ([6]; feed rate 1 mg/L): 72%
